In patent US20050234111A1, “D-homo-17-chlor-16(17)-ene steroids” (priority 2004, published 2005):

Target: T1, androgen receptor (Rattus norvegicus, UniProt P15207)
T1 construct: on receptors in cystosol from animal target organs; from tissue; host or cells: prostate cytosol of castrated rat
T1 sequence (P15207 1-902): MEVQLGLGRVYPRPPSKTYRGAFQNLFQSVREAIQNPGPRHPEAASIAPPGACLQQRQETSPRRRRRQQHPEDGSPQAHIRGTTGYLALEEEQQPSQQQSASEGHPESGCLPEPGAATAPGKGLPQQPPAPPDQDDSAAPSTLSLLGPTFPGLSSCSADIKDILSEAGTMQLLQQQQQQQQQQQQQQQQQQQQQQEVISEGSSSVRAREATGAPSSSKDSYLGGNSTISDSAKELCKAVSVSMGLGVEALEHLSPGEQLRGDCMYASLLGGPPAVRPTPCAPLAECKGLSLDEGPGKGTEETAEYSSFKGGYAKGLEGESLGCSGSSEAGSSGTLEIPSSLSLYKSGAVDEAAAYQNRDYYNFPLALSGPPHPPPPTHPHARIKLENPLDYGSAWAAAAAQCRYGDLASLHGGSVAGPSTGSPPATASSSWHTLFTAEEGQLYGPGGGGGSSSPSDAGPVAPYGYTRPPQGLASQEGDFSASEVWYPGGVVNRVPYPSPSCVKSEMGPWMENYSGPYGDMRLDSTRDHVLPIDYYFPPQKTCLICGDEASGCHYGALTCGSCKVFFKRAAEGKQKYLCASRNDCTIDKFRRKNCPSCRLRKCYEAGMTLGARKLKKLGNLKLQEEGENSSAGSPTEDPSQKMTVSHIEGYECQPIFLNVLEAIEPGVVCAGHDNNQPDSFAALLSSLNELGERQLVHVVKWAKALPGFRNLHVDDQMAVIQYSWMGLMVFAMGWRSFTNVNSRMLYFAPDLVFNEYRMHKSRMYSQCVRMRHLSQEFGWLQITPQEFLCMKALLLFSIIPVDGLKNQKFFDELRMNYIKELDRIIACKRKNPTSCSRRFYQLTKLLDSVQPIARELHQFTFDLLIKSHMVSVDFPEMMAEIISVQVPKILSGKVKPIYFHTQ
Assay: Measurement of the androgen receptor binding affinity (competitive binding with 3H-Metribolone tracer in prostate cytosol)
Conditions: prostate cytosol of the castrated rat; tracer 3H-Metribolone; reference substance DHT = 100%; 0-4° C., 18 hours
Description: Measurement of the androgen receptor binding affinity:
The receptor binding affinity was determined by competitive binding of a specifically binding 3H-labeled hormone (tracer) and the compound to be tested on receptors in cystosol from animal target organs. In this case, receptor saturation and reaction equilibrium were desired.
The tracer and increasing concentrations of the compound to be tested (competitor) were co-incubated at 0-4° C. over 18 hours with the receptor-containing cytosol fraction. After separation of the unbonded tracer with carbon-dextran suspension, the receptor-bonded tracer portion was measured for each concentration and the IC50 was determined from the concentration series.
The following incubation conditions were selected:
Prostate cytosol of the castrated rat; prostates stored at −30° C.;

SMILES: CC1CC2=CC(=O)CCC2(C)C2CCC3(C)C(O)C(Cl)=CCC3C12 (stereo not drawn) [Compound 2, 17-Chloro-17aβ-hydroxy-7α-methyl-17a-homoandrosta-4,16-dien-3-one]
- RBA % (relative molar binding affinity): 46%

SMILES: C[C@]12CC[C@H]3[C@@H](CCC4=C(C(F)(F)F)C(=O)CC[C@@]43C)[C@@H]1CC=C(Cl)[C@@H]2O [Compound 9, 17-Chloro-17aβ-hydroxy-4-trifluoromethyl-17a-homoandrosta-4,16-dien-3-one]
- RBA % (relative molar binding affinity): 51%

SMILES: C[C@]12CC[C@H]3[C@@H](CCC4=CC(=O)CC[C@@H]43)[C@@H]1CC=C(Cl)[C@@H]2O [Compound 17, 17-Chloro-17aβ-hydroxy-17a-homo-estra-4,16-dien-3-one]
- RBA % (relative molar binding affinity): 80%

SMILES: CC1CC2=CC(=O)CCC2C2CCC3(C)C(O)C(Cl)=CCC3C12 (stereo not drawn) [Compound 18, 17-Chloro-17aβ-hydroxy-7α-methyl-17a-homo-estra-4,16-dien-3-one]
- RBA % (relative molar binding affinity): 105%

SMILES: CC12CCC3C4CCC(=O)C(O)=C4CCC3C1CC=C(Cl)C2O (centres unmarked) [Compound 21, 17-Chloro-4,17aβ-dihydroxy-17a-homo-estra-4,16-dien-3-one]
- RBA % (relative molar binding affinity): 70%
